Experimental data published in publication PMC7782793, “Hydroxamic acid-modified peptide microarrays for profiling isozyme-selective interactions and inhibition of histone deacetylases” (Nature Communications, 2021).
Values joined by “and” are separate entries in the source; they are usually repeats but may differ in a detail not shown here. Equal values may be shown once. Marks after values point to notes of the source that are not given here. Non-standard residues stand in square brackets, D forms with d. Residues, ends and D or L forms follow the SMILES beside them. *: point of attachment. Asu = N[C@@H](CCCCCC(=O)O)C(=O)O; NHOH = ON*

Experiments:
HDAC3/NCoR2 = target: T1, HDAC3/NCoR2 (Homo sapiens, UniProt O15379); experiment: HDAC inhibition assay (fluorogenic, Ac-Leu-Gly-Lys(Ac)-AMC); format: biochemical; conditions: for HDAC3 dose-response data (relative enzyme activity), Fig. 6 + S. Fig. 10: duplicate columns
T1 construct: HDAC3/NCoR2 (full length, C-terminal His tag, NCoR2 N-terminal GST tag); purchased BPS Bioscience 50003
T1 sequence (O15379 whole entry): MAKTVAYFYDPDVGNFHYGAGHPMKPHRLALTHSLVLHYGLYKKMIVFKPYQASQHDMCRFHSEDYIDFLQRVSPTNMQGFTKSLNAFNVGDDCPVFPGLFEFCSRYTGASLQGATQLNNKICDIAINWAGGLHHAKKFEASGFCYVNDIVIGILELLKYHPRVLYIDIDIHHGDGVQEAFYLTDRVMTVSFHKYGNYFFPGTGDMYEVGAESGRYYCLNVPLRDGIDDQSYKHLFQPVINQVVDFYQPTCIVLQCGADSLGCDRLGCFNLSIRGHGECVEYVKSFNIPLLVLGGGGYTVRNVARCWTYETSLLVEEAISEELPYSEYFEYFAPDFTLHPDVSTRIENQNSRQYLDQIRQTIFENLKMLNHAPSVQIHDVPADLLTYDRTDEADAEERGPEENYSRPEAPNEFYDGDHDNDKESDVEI
T1 sequence (Q9Y618 389-480 partner limits assumed): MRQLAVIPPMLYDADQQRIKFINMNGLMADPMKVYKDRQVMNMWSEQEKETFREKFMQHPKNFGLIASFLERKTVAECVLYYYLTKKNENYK

HDAC6 = target: T2, HDAC6 (Homo sapiens, UniProt Q9UBN7); experiment: as above; format: biochemical; conditions: HDAC6, replicates
T2 construct: HDAC6 (full length, BPS Bioscience, cat. #: 50056); purchased BPS Bioscience 50056
T2 sequence (Q9UBN7 1-1215): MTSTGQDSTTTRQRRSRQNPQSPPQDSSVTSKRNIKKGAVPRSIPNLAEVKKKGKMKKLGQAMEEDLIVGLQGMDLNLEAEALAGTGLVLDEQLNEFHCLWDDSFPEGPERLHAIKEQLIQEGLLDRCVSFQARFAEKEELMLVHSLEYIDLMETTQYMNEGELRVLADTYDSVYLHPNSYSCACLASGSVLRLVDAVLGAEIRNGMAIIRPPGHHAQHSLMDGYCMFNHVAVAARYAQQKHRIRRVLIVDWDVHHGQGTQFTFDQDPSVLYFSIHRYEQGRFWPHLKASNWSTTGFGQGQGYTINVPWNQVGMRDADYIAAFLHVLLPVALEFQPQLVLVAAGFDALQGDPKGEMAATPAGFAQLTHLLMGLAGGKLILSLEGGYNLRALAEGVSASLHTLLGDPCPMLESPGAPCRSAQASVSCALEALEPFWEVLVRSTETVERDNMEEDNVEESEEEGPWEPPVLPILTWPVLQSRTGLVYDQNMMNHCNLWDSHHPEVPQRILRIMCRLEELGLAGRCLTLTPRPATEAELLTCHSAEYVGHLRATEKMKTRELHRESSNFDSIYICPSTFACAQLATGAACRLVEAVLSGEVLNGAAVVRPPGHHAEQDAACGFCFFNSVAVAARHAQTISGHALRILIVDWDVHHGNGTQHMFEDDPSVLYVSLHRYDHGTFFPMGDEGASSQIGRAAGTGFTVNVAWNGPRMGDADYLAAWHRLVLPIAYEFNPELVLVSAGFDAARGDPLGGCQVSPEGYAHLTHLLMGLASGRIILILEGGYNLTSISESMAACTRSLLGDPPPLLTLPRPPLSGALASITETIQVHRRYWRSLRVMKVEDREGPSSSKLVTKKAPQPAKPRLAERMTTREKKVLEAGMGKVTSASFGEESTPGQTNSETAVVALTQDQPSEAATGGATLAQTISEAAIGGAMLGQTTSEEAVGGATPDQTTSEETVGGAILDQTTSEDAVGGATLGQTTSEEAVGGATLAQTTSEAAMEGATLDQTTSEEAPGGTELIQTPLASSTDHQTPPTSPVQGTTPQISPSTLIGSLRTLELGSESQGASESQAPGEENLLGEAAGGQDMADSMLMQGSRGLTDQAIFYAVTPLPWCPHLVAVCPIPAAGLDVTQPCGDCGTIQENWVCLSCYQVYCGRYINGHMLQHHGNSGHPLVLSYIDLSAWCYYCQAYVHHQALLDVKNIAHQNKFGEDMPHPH

HDAC2 [1] = target: T3, HDAC2 (Homo sapiens, UniProt Q92769); experiment: Recombinant HDAC µSPOT microarray binding assay;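 further: Cellulose-bound peptide spots on slides incubated with six HDAC enzyme concentrations, binding intensity read, four-parameter variable-slope fit, EC50 is enzyme concentration giving half-maximal binding, in HEPES buffer pH 7.4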
T3 construct: HDAC2 (full length, C-terminal His tag, BPS Bioscience, cat. #: 50002); purchased BPS Bioscience 50002
T3 sequence (Q92769 whole entry): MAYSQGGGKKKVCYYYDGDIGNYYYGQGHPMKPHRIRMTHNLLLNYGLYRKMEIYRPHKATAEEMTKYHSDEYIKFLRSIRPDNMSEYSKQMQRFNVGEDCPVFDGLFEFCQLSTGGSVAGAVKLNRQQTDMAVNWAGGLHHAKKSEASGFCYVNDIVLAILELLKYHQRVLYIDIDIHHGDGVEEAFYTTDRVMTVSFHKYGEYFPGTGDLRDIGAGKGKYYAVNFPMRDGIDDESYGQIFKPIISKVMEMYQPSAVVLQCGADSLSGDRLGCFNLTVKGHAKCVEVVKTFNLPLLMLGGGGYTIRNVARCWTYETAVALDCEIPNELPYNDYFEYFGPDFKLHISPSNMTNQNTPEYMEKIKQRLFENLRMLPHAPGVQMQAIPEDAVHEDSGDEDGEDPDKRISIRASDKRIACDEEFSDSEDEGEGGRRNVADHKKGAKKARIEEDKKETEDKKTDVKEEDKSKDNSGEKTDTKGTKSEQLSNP

HDAC2 [2] = target: T3, HDAC2; experiment: HDAC inhibition assay (fluorogenic, Ac-Leu-Gly-Lys(Ac)-AMC); format: biochemical; conditions: for HDAC2 dose-response data (relative enzyme activity), Fig. 6 + S. Fig. 10: duplicate columns
HDAC1 = target: T4, HDAC1 (Homo sapiens, UniProt Q13547); experiment: Recombinant HDAC µSPOT microarray binding assay;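 further: slides with spotted peptides incubated with six HDAC concentrations in HEPES buffer pH 7.4, spot intensities fitted by four-parameter logistic, EC50 as enzyme concentration giving half-maximal binding signal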
T4 construct: HDAC1 (full length, C-terminal His tag, C-terminal FLAG tag, BPS Bioscience, cat. #: 50051); FLAG (C); purchased BPS Bioscience 50051
T4 sequence (Q13547 whole entry): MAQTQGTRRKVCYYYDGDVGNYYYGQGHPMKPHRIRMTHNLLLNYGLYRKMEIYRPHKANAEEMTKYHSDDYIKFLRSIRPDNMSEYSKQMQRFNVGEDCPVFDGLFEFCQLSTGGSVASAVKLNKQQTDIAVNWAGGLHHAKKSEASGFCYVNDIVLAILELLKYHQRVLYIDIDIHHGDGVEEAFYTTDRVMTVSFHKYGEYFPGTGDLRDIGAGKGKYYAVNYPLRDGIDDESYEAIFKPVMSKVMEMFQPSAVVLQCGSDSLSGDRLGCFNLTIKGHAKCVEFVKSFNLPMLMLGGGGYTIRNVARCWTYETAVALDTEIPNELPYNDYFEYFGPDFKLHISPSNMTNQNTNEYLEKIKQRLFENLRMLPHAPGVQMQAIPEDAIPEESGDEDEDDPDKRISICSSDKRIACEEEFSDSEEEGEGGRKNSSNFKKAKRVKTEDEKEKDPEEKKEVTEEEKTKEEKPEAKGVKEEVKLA

[3] = log[inhibitor(M)] -10,5850266520292*, whole line marked with asterisks

Compound: CC[C@H](C)[C@H](NC(=O)[C@H](CCC(=O)O)NC(=O)[C@H](CCCNC(=N)N)NC(=O)[C@H](CO)NC(=O)[C@@H](NC(=O)[C@@H](NC(=O)[C@@H](NC(=O)[C@H](CO)NC(=O)[C@H](CCCNC(=N)N)NC(=O)[C@H](CCCCCC(=O)NO)NC(=O)[C@H](CC(N)=O)NC(=O)[C@H](Cc1ccc(O)cc1)NC(=O)[C@H](Cc1c[nH]cn1)NC(C)=O)[C@@H](C)O)[C@@H](C)CC)[C@@H](C)O)C(=O)N[C@@H](CCC(N)=O)C(=O)N[C@H](C(=O)N[C@@H](C)C(=O)N[C@@H](Cc1c[nH]c2ccccc12)C(N)=O)[C@@H](C)O [12a] (Ac-HYN[Asu](NHOH)RSTITSREIQTAW-NH2)
- HDAC3 dose-response data (relative enzyme activity), Fig. 6 + S. Fig. 10 (HDAC3/NCoR2; log[inhibitor(M)] -5): 1.408 and 1.481
- HDAC3 dose-response data (relative enzyme activity), Fig. 6 + S. Fig. 10 (HDAC3/NCoR2; log[inhibitor(M)] -5.69897): 5.267 and 4.363
- HDAC3 dose-response data (relative enzyme activity), Fig. 6 + S. Fig. 10 (HDAC3/NCoR2; log[inhibitor(M)] -6.39794): 16.4324 and 13.9407
- HDAC3 dose-response data (relative enzyme activity), Fig. 6 + S. Fig. 10 (HDAC3/NCoR2; log[inhibitor(M)] -7.09691): 38.5352 and 35.6199
- HDAC3 dose-response data (relative enzyme activity), Fig. 6 + S. Fig. 10 (HDAC3/NCoR2; log[inhibitor(M)] -7.79588): 73.2464 and 64.9902
- HDAC3 dose-response data (relative enzyme activity), Fig. 6 + S. Fig. 10 (HDAC3/NCoR2; log[inhibitor(M)] -8.49485): 93.6652 and 87.0389
- HDAC3 dose-response data (relative enzyme activity), Fig. 6 + S. Fig. 10 (HDAC3/NCoR2; log[inhibitor(M)] -9.19382): 96.2351 and 93.241
- HDAC3 dose-response data (relative enzyme activity), Fig. 6 + S. Fig. 10 (HDAC3/NCoR2; log[inhibitor(M)] -9.89279): 95.5729 and 96.0845
- HDAC3 dose-response data (relative enzyme activity), Fig. 6 + S. Fig. 10 (HDAC3/NCoR2; [3]): 103,997369* and 102,157851*
- selectivity for HDAC3 vs. HDACs 1 and 2 (HDAC3/NCoR2; resynthesized peptides, from Ki): ~ 2 fold
- residual enzymatic activity relative to control wells (HDAC6; log[inhibitor(M)] -4.30103): 1.727 and 0.8308
- residual enzymatic activity relative to control wells (HDAC6; log[inhibitor(M)] -5): 2.004 and 3.233
- residual enzymatic activity relative to control wells (HDAC6; log[inhibitor(M)] -5.69897): 5.047 and 6.177
- residual enzymatic activity relative to control wells (HDAC6; log[inhibitor(M)] -6.39794): 15.6412 and 12.824
- residual enzymatic activity relative to control wells (HDAC6; log[inhibitor(M)] -7.09691): 40.6476 and 34.5345
- residual enzymatic activity relative to control wells (HDAC6; log[inhibitor(M)] -7.79588): 71.7467 and 73.0064
- residual enzymatic activity relative to control wells (HDAC6; log[inhibitor(M)] -8.49485): 80.6815 and 89.6415
- residual enzymatic activity relative to control wells (HDAC6; log[inhibitor(M)] -9.19382): 82.3274 and 88.4313
- residual enzymatic activity relative to control wells (HDAC6; log[inhibitor(M)] -9.89279): 83.6621 and 89.4789
- residual enzymatic activity relative to control wells (HDAC6; log[inhibitor(M)] -10.585): 102.86 and 101.255
- EC50 (HDAC2 [1]): > 25.1 nM
- HDAC2 dose-response data (relative enzyme activity), Fig. 6 + S. Fig. 10 (HDAC2 [2]; log[inhibitor(M)] -5): 3.067 and 2.914
- HDAC2 dose-response data (relative enzyme activity), Fig. 6 + S. Fig. 10 (HDAC2 [2]; log[inhibitor(M)] -5.69897): 11.3787 and 10.2695
- HDAC2 dose-response data (relative enzyme activity), Fig. 6 + S. Fig. 10 (HDAC2 [2]; log[inhibitor(M)] -7.79588): 90.7701 and 92.8679
- HDAC2 dose-response data (relative enzyme activity), Fig. 6 + S. Fig. 10 (HDAC2 [2]; [3]): 102,18881* and 100,790249*
- Ki (HDAC2 [2]; resynthesized peptide in solution, Cheng-Prusoff, n = 2): 23.8 ± 0.1 nM
- EC50 (HDAC1): > 25.1 nM
